Data set [1] in a line: Dig-peptide serum kinetic: Western blot detection of digoxigenylated polypeptide in serum. The class given is in vivo, mouse. On the procedure:
(§1) Serum samples were stored at −80° C.
The determination of the amount of digoxigenylated peptide in the serum at the given time points was difficult compared to the detection of Dig-Cy5 as no direct means to detect the polypeptide in serum samples was available. Therefore, a Western-Blot related assay to detect digoxigenylated peptide in serum was established. In a first step, the serum samples were separated on reducing SDS-PAGE. Because sample preparation included exposure of the serum to high concentrations of SDS and reducing agents, complexed Dig-polypeptide conjugates can become released from the (completely denatured/unfolded) anti-digoxigenin antibody, whereas covalently conjugates remained bound. To mediate the release of the polypeptide from the non-covalent antibody complex and separate the individual components by SDS-PAGE, 2 μl of each serum sample was diluted in 18 μl 20 mM histidine/140 mM NaCl pH 6.0, mixed with 6.7 μl of 4×LDS sample buffer and 3 μl of 10× sample reducing agent (NuPAGE, Invitrogen) for 5 min at 95° C. As a control, 2 μl of serum of an untreated mouse of the same strain was used. […] Digoxigenylated polypeptides were subsequently detected on the membrane with an anti-digoxigenin antibody. […] Chemiluminescence was detected with the Lumilmager F1 (Roche) with an exposure time of 20 min.
(In general: Immunoblotting shows a protein as a band on a membrane.)

For data set [2] the following is noted: mouse, in vivo. From the text:
The control group was not pre-injected with the anti-biotin antibody.

For data set [3] the following is noted: mouse, in vivo. On the procedure:
The objective of the described peptide modification technology is to improve the therapeutic applicability of peptides. Major bottlenecks for therapeutic application of peptides are currently limited stability in vivo and/or short serum half-life and fast clearance. The PK parameters of antibody conjugates of fluorophores were determined in vivo and compare with the PK of non-covalent antibody-fluorophore complexes. Therefore, (i) the anti-biotin antibody VH53C was covalently conjugated to the biotinylated fluorophore Biot-Cys-Cy5, (ii) a non-covalent complex of the anti-biotin antibody with biotinylated fluorophore Biot-Cy5 was generated, (iii) the covalently conjugated and the non-covalently complexed compounds were applied to animals and (iv) the serum concentrations of the compounds over time in these animals was measured by determination of the fluorescence of Cy5 (A650), and that of the corresponding antibody by an ELISA method that specifically detects the humanized antibody.
as §1
The source holds these as a separate data set.

For the molecule `CC[C@H](C)[C@H](NC(C)=O)C(=O)N[C@@H](CCCCNC(=O)CCOCCOCCOCCNC(=O)CO[C@H]1CC[C@@]2(C)[C@H](CC[C@@H]3[C@@H]2C[C@@H](O)[C@]2(C)[C@@H](C4=CC(=O)OC4)CC[C@]32O)C1)C(=O)N1CCN(c2ccc3ncn(CC(=O)N[C@@H](CCCNC(=N)N)C(=O)N[C@@H](Cc4c[nH]cn4)C(=O)N[C@@H](Cc4ccc(O)cc4)C(=O)N[C@@H](CC(C)C)C(=O)N[C@@H](CC(N)=O)C(=O)N[C@@H](Cc4c[nH]c5ccccc45)C(=O)N[C@H](C(=O)N[C@H](C(=O)N[C@@H](CCCNC(=N)N)C(=O)N[C@@H](CCC(N)=O)C(=O)N(C)[C@@H](CCCNC(=N)N)C(=O)N[C@@H](Cc4ccc(O)cc4)C(N)=O)[C@@H](C)O)C(C)C)c(=O)c3c2)CC1` [non-complexed polypeptide], the “presence of digoxigenylated polypeptide in serum (Western blot signal)” value in data set [1] (32.1 nmol, 0.08 h to 24 h after administration, FIG. 35) was “barely any signal associable to the small polypeptide was detectable even at the earliest time point”. In addition, the “half-life / persistence in the serum of mice” value in data set [1] (Western blot, up to 24 hrs.) is “very short half-life”.
As to “Biotin-O2Oc-Ser-O2Oc-DADOO-Cy5 [Biotin-Ser-Cy5]”, the “serum half-life and exposure levels” value in data set [2] is “low serum half-life and low exposure levels”. Besides, the “relative Cy5-mediated fluorescence in serum” value in data set [3] is given as “not detectable”.

(Values after patent US12023378B2, “Covalently linked antigen-antibody conjugates” (Hoffmann-La Roche Inc., priority 2012, dated 2024).)
